Assays:
[1] = system: culture isolated from the slime; experiment: The effect of the antagonistic and the dispersing agent on the formation of the deposit; format: cell-based; details: after 7 days
Description: Cultures which are isolated from the slime are cultivated in a NB cultivation liquid for 21-24 hours. Then, 1 mL culture liquids of the isolated cultures are centrifuged in 15000 rpm for 1 min and the supernatants thereof are removed. All the isolated cultures are re-suspended by adding 1 mL sterile water, and then each re-suspended culture is inoculated into a flask which already contains sterile white water 100 mL and 3 g LBKP pulp. Later, different dispersing agents are added into different flasks of each kind of culture to obtain different mixtures. The mixtures are cultivated in an incubate shaker at 40° C. 70 rpm. After being mixture cultivated for 3 hours, 3 mL antagonistic C5 (Streptomyces bikiniensis) which has been amounted to 10^7/mL after being cultivated for 24 hours is added thereinto to obtain another mixture. The mixture are cultivated in the incubate shaker again at 40° C., 70 rpm. After 7 days, the production of the deposit is recorded. The whole experiment is separated into six groups. […] There are four experimental group: 3: Only incubate the culture isolated from the slime without incubating the antagonistic C5; 4: Incubate both the culture isolated from the slime and the antagonistic C5; 5: Incubate the culture isolated from the slime and the dispersing agent; and 6: Incubate the culture isolated from the slime, the dispersing agent, and the antagonistic C5. The groups described above are double checked and all experiments are repeated at least once. Deposit % is calculated by the formula as follows: [formula]

[2] = system: culture isolated from the slime; experiment: The track experiment of periodically adding the antagonistic; format: cell-based
Description: Cultures which are isolated from the slime are cultivated in a NB cultivation liquid for 21-24 hours. Then, 1 mL culture liquids of the isolated cultures are centrifuged in 15000 rpm for 1 min and the supernatants thereof are removed. All the isolated cultures are re-suspended by adding 1 mL sterile water, and then each re-suspended culture is inoculated into a flask which already contains sterile white water 100 mL and 3 g LBKP pulp. Later, different dispersing agents are added into different flasks of each kind of culture to obtain different mixtures. The mixtures are cultivated in an incubate shaker at 40° C. 70 rpm. After being mixture cultivated for 3 hours, 3 mL antagonistic C5 (Streptomyces bikiniensis) which has been amounted to 10^7/L after being cultivated for 24 hours is added thereinto to obtain another mixture. The mixture are cultivated in the incubate shaker again at 40° C. 70 rpm. […] Then, the final deposit amount after another 7 days (total 14 days) is also recorded. The whole experiment is separated into four groups. […] There are two experimental group: 3: Only incubate the culture isolated from the slime without incubating the antagonistic C5; and 4: Incubate both the culture isolated from the slime and the antagonistic C5. The groups described above are double checked and all experiments are repeated at least once. Deposit % is calculated by the formula as follows: [formula]

[3] = isolated culture in sterile white water 100 mL + 3 g LBKP pulp, 40° C. 70 rpm, culture isolated from slime alone = 100%
[4] = contrast group: only antagonistic C5, without the culture isolated from the slime

Substance | Deposit (%) of the slime [1, 3] [%] | Deposit % (Day 7) [2, 4] [%] | Deposit % (Day 14) [2, 4] [%] | Deposit % (Day 14) ([2]; culture isolated from slime + antagonistic C5, antagonistic C5 re-added at Day 7) [%] | Deposit % (Day 14) ([2]; culture isolated from slime + antagonistic C5 added once, not re-added, culture alone = 100%) [%] | Deposit % (Day 7) ([2]; culture isolated from slime + antagonistic C5 added once, culture alone = 100%) [%] | Deposit (%) of the slime [1, 4] [%]
Di-alkyl sulfosuccinate [dispersing agent S100] | 53 | – | – | – | – | – | –
Streptomyces bikiniensis [Antagonistic C5] | 53.0 | 31.0 | 35.0 | 28 | 87 | 29 | 24.7

From patent publication US20040074621A1, “Method for reducing slime production and mixture making the same” (Yuen Foong Yu Paper MFG Co., Ltd., priority 2002, published 2004)
